Reference: patent US20250256005A1, “FLOWABLE PASTE WITH ELLAGIC ACID-NICKEL COMPLEX AND USES THEREOF FOR ACTIVATING COAGULATION” (Ethicon, Inc., priority 2024, published 2025)

System: citrated whole blood (intrinsic pathway of coagulation)
Experiment: Whole Blood (WB) gelation test
Type: biochemical
Conditions: ellagic acid without Nickel or any other metal
Source text: The aim was to assess how quickly the activators clot fresh whole blood.
These clotting time assays evaluate the ability of a material to active the intrinsic pathway to form a fibrin clot in whole blood after recalcification of citrated blood. Fresh citrated blood is used to preserve clotting factors.
WB Gelation Test: The WB gelation test uses a larger volume of blood compared to a small volume ACT tube to accommodate biomaterials, e.g., gelatins, collagen, thus allowing the WB gelation test to assess interactions between activators and biomaterials. […] To address this limitation, the WB Gelation Test was developed with a heated enclosure and larger tubes to accommodate larger volumes of blood and greater amounts of activators. Setup includes a plexiglass enclosure with a heating unit to perform the testing at 37° C. A temperature sensor in the enclosure maintained the temperature at 37° C. ±1° C. The enclosure contains an orbital rotator to gently mix the blood to with the other materials being tested while keeping it warm. The calcium saline and tube rocker are also in the enclosure. The enclosure has a front hinge to allow access from the front of the unit.
In exemplary procedures, citrated whole blood (4 ml) was added to a 15 ml conical tube with activator/biomaterial and mixed, then calcium saline solution (2 ml) was added to the tube and the timer is started. […]

Structure (SMILES): O=c1oc2c(O)c(O)cc3c(=O)oc4c(O)c(O)cc1c4c23 [Ellagic acid, ellagic acid]
- time over which no clotting was observed: over 1200 minutes
